Structures can show the parent of a compound that is named as a salt.
Key:
Type in all cases: cell-based, human
MDA-MB-231 cells [1] = experiment: Novelty detection of drug MoA on single-cell Chemical Painting data (LDA, Mahalanobis distance, isolation forest); conditions: test compounds; for Mean score: dynamic range [1, −1], below 0.1 detected as novel; for Outlier %: single-cell data predicted as outliers (novel); for Prediction: MoA predicted as known class or novel
Text: We specifically designed an algorithm for Chemical Painting to identify drugs with novel MoAs, using the dataset and model in drug MoA prediction as an annotated reference. In this algorithm, the first step is to calculate the Mahalanobis distance between single-cell data from test compound and each reference class in the trained LDA model. The class with the minimum distance represents the known drug closest to the test compound. Next, isolation forest, is introduced to determine whether the test compound is novel to the selected known drug class. The prediction output in this step is 1 as inliers (known) and −1 as outliers (novel) for each single-cell data from the test compound. […] Test compound with a mean prediction score below the threshold value is detected as novel.
(§1) Sample preparation for drug-treated cells with labeling. MDA-MB-231 cells were seeded on clean CaF2 substrates with 5×10^4 cells per well in cell culture media (DMEM, 10% FBS, 1% penicillin) overnight. Then the culture media was replaced by ^13C-amino acids DMEM with 50 μM azido-palmitic acid, 50 μM d34 oleic acid, either single drug at its IC50 concentration or drug combinations at chosen concentrations. Drugs were prepared in 100% DMSO and diluted to 0.1% DMSO in labeling media. For the control group, only cell labeling media with 0.1% DMSO was added (without any drugs). Cells were treated for 48 hrs. After that, cells were fixed by 4% PFA at room temperature for 15 min and washed three times with PBS buffer and five times with dd-H2O. The samples were then air-dried before imaging.
(§2) FTIR imaging. Agilent Cary 620 Imaging FTIR equipped with an Agilent 670-IR spectrometer and 128×128-pixels FPA mercury cadmium telluride (MCT) detector was used in the transmission mode. A background spectrum was collected on a clean CaF2 substrate using 128 scans at 8 cm-1 spectral resolution. Cell spectra were recorded using 64-128 scans at 8 cm-1 spectral resolution. A ×25 IR objective (pixel size, 3.3 um, 0.81 numerical aperture (NA)) was used for cell imaging.
Machine learning. The tests of all the machine learning classifiers were performed using Python (Scikit-learn). Specifically, single-cell data was split into 70% training and 30% testing with labels corresponding to drug MoAs. The hyper-parameters of each classifier were carefully tuned using RandomizedSearchCv in Scikit-learn. The performances of these classifiers were evaluated in the testing dataset using accuracy as the main metric. To test the performance of classifiers on batch effects, single-cell data collected from different batches were loaded as another testing dataset. For feature importances of LDA classifier, permutation feature importance (Scikit-learn) was used. The intrinsic feature importance values from random forest classifier were also extracted.
Novelty detection algorithm. In the first step, the Mahalanobis distances between the test compound and each reference class in the annotated dataset were calculated by home-built codes in python. Drug class with minimum distance was selected. Next, isolation forest, which is available in Python, was imported to predict whether single-cell data from the test compound is known (inliers) or novel (outliers) to the selected drug class. The mean of the prediction results from single-cell data is reported as mean prediction score.

MDA-MB-231 cells [2] = experiment: Chemical Painting: single-cell metabolic responses by FTIR imaging with three IR-active vibrational probes; conditions: drug at its IC50 concentration, 48 hrs, compared with control
Method: The first step is to add the three vibrational probes and the tested drug at its IC50 concentration to the cell culture media and co-cultured for 48 hrs. After that, cells are fixed and air-dried. Then Fourier transformed infrared (FTIR) imaging, a modality of MIR imaging, was performed to collect the full spectral data of cells. The collection speed is around 2 cells/second for human cancer cells with sufficient co-scans (˜64 scans). In the following data analysis, quality test, baseline correction and data normalization were included for data preprocessing (Methods). Next, single-cell segmentation was performed with open-source software CellProfiler to generate masks. These masks can be further used to extract single-cell IR spectrum from the MIR imaging data, forming the single-cell biochemical profile. We then introduced a series of analytical methods for the downstream analysis, including machine learning, novelty detection and statistical methods to map cell phenotypes and identify drug MoAs. Overall, the workflow of Chemical Painting is straightforward in experimental operations and effected in single-cell data analysis, which laid the foundation for this method to reveal valuable insights toward phenotypic profiling and potential drug discovery.
Systematic sensitivity and generalizability evaluation of Chemical Painting toward a broad range of drugs: It remains unknown whether our method has sufficient sensitivity to differentially discriminate cell responses to different drugs. To evaluate its sensitivity we tested 13 drugs belonging to 9 different drug MoAs. These drugs can be separated into two main panels: one consists of drugs that inhibit general metabolism; another one contains drugs targeting specific proteins or interfering with particular metabolic pathways. The single-cell metabolic responses toward different drug treatment were visualized in the 3D scatter plots where x-axis represents saturated FA metabolism (azido-PA/CH2), y-axis represents unsaturated FA metabolism (d34OA/CH2), and z-axis represents protein synthesis (^13C amide I/(^13C amide I+^12C amide I)). The use of ratios is meant for more accurate quantification of metabolic activities. Each dot represents the metabolic responses of an individual cell in the plots.
as §1, §2
Data preprocessing. […]

MDA-MB-231 cells [3] = experiment: Cell viability assay (Alamar blue) for drug IC50; conditions: single drug, 48 hrs; for half of the IC50 values: concentration added in combination groups
Text: Another aspect to consider is how to ensure the cells are in a similar state under different categories of drug treatments. To achieve this, we measured the half maximal inhibitory concentration (IC50) of different drugs separately by cell viability assays in 48 hrs, in agreement with the probe culturing time. This method is commonly used in pharmaceutical studies to compare the effect of various products. Besides the experimental operations, data analysis is vital to the obtained large-scale data to map cell phenotypes after drug perturbation. We thus built a complete analytical pipeline for Chemical Painting, including data preprocessing, single-cell segmentation, single-cell biochemical profile extraction and downstream analysis.
Cell viability assay and drug IC50 calculus. The IC50 values of the drugs were determined by Alamar blue assay. Cells were seeded at 10,000 per well in 96-well plates. After 24 h, the cells were washed twice with phosphate buffered saline (PBS) and treated with drugs at different concentrations in cell culture media for 48 hrs. Each drug concentration has 6-8 replicates. After the drug treatments, cells were washed with PBS twice and the cell viability was determined by Alamar blue assay following the manufacturer's protocol (Invitrogen) using plate reader. The IC50 values were determined by fitting the data using a dose response model with variable Hill slope built in Prism.

Row | Molecule | Mean score (MDA-MB-231 cells [1]) | Outlier % (MDA-MB-231 cells [1]) [%] | Prediction (MDA-MB-231 cells [1]) | protein synthesis (13C amide I/(13C amide I+12C amide I)) (MDA-MB-231 cells [2]) | saturated FA metabolism (azido-PA/CH2) (MDA-MB-231 cells [2]) | unsaturated FA metabolism (d34OA/CH2) (MDA-MB-231 cells [2]) | also measured
1 | CCC(=O)CCCCC[C@@H]1NC(=O)[C@H]2CCCCN2C(=O)[C@H]([C@@H](C)CC)NC(=O)[C@H](Cc2cn(OC)c3ccccc23)NC1=O [Apicidin] | −0.5289 | 76.45 |  |  |  |  | 
2 | COc1cccc2c1C(=O)c1c(O)c3c(c(O)c1C2=O)C[C@@](O)(C(C)=O)C[C@@H]3O[C@H]1C[C@H](N)[C@H](O)[C@H](C)O1 [Daunorubicin, Daunorubicin hydrochloride] |  | 7.515 | DNA intercalation |  |  |  | Mean score (MDA-MB-231 cells [1]; hydrochloride): 0.8497; Mean score (MDA-MB-231 cells [1]; listed as daunorubicin, hydrochloride): high
3 | CC[C@H]1CN2CCc3cc(OC)c(OC)cc3[C@@H]2C[C@@H]1C[C@H]1NCCc2cc(OC)c(OC)cc21 [Emetine, emetine] | 0.6208 | 18.96 | Protein |  |  |  | Mean score (MDA-MB-231 cells [1]; listed as emetine): high
4 | NC(=O)c1ccc(I)c([N+](=O)[O-])c1 [Iniparib, iniparib] | −0.9923 | 99.62 | Novel |  |  |  | Mean score (MDA-MB-231 cells [1]; listed as iniparib): quite negative
5 | CC(=O)O[C@H]1C(=O)[C@@]2(C)[C@H]([C@H](OC(=O)c3ccccc3)[C@]3(O)C[C@H](OC(=O)[C@H](O)[C@@H](NC(=O)c4ccccc4)c4ccccc4)C(C)=C1C3(C)C)[C@]1(OC(C)=O)CO[C@@H]1C[C@@H]2O [Taxol] | −0.5052 | 75.26 | Novel |  |  |  | 
6 | CC[C@]1(O)C[C@H]2CN(CCc3c([nH]c4ccccc34)[C@@](C(=O)OC)(c3cc4c(cc3OC)N(C=O)[C@H]3[C@@](O)(C(=O)OC)[C@H](OC(C)=O)[C@]5(CC)C=CCN6CC[C@]43[C@@H]65)C2)C1 [Vincristine] | −0.9466 | 97.33 | Novel |  |  |  | 
7 | CC(C)C[C@H](NC(=O)[C@H](Cc1ccccc1)NC(=O)c1cnccn1)B(O)O [bortezomib] |  |  |  | more evidently decreased | reduced | reduced | 
8 | C[C@@H]1C[C@@H]([C@H](O)CC2CC(=O)NC(=O)C2)C(=O)[C@@H](C)C1 [cycloheximide] |  |  |  | much lower |  |  | 
9 | COc1cccc2c1C(=O)c1c(O)c3c(c(O)c1C2=O)C[C@@](O)(C(=O)CO)C[C@@H]3O[C@H]1C[C@H](N)[C@H](O)[C@H](C)O1 [doxorubicin, doxorubicin hydrochloride] |  |  |  | largely inhibited | largely inhibited | largely inhibited | 
10 | CO[C@H]1C[C@@H]2CC[C@@H](C)[C@@](O)(O2)C(=O)C(=O)N2CCCC[C@H]2C(=O)O[C@H]([C@H](C)C[C@@H]2CC[C@@H](OCCO)[C@H](OC)C2)CC(=O)[C@H](C)/C=C(\C)[C@@H](O)[C@@H](OC)C(=O)[C@H](C)C[C@H](C)/C=C/C=C/C=C/1C [everolimus] |  |  |  |  |  |  | half of the IC50 values (MDA-MB-231 cells [3]): 14.5 µM
11 | CS(=O)(=O)CCNCc1ccc(-c2ccc3ncnc(Nc4ccc(OCc5cccc(F)c5)c(Cl)c4)c3c2)o1 [lapatinib] |  |  |  |  |  |  | IC50 (MDA-MB-231 cells [3]; Homo sapiens, MDA-MB-231, cell viability): 2140 nM; half of the IC50 values (MDA-MB-231 cells [3]): 1.12 µM
12 | O=C(c1cc(Cc2n[nH]c(=O)c3ccccc23)ccc1F)N1CCN(C(=O)C2CC2)CC1 [olaparib] |  |  |  | significantly reduced | significantly reduced | significantly reduced | 
13 | CCC/C=C/C/C=C/C=C/C=N/NN=O [triacsin-C, triacsin C] |  |  |  | remained at a similar level compared with the control group | significant decreases | significant decreases | 
14 | TVB-3166 |  |  |  | slightly decreased | significantly reduced | significantly reduced | 

Reference: patent publication US20260088132A1, “CHEMICAL PAINTING” (The Trustees of Columbia University in the City of New York, priority 2023, published 2026)
